Measured values as given in patent US11873320B2 (REATA PHARMACEUTICALS HOLDINGS, LLC, priority 2013, dated 2024).
Read-outs that look alike come from different tables or passages of the source.

Assays:
[1] = tested on: IFNγ-induced NO production; assay: IFNγ-induced NO production in RAW264.7 macrophages (Griess reagent); type: cell-based; conditions: Mus musculus
Procedure: Inhibition of IFNγ-induced NO production by AIMs is Nrf2-dependent (Dinkova-Kostova, 2005). […] Nitrite (NO2^−) levels in the media were measured as a surrogate for nitric oxide using the Griess reagent assay. Cell viability was assessed using the WST-1 assay. […] 63170, 63171, 63179, and 63189 are compounds of the formulas: […]

glutathione levels = assay: induction of glutathione levels, RAW264.7 mouse model; type: cell-based
Description: Glutathione and NADPH are critical factors required for the maintenance of cellular redox capacity. […] Data shown are representative of two independent experiments.

NADPH levels = assay: WST-1 absorbance as marker of NADPH in HCT-116 cells; type: cell-based; conditions: 24 hours
[2] = tested on: TNFα-induced NF-κB activation; assay: TNFα-induced NF-κB luciferase reporter, HeLa/NF-κB-Luc cells; type: cell-based; conditions: Homo sapiens, 1 h pretreatment, TNFα 10 ng/mL 5 h
Description: NF-κB is a transcription factor that plays a central role in the regulation of many immune and inflammatory responses.

phosphorylation of IκBα = assay: TNFα-induced phosphorylation of IκBα in HeLa cells (Western blot); type: cell-based, human; conditions: 6 h pretreatment, TNFα 20 ng/mL 5 min
Procedure: Total and phosphorylated levels of IκBα were evaluated by Western blot.

STAT3 phosphorylation = assay: IL-6-induced STAT3 phosphorylation in HeLa cells; type: cell-based, human; conditions: 1 μM, 6 hours pretreatment
Description: Osteoclastogenesis is a multi-step differentiation process that results from the binding of RANKL to its receptor, RANK, on cells of hematopoietic origin.

transaminase mRNA levels = assay: transaminase gene expression in AML-12 hepatocytes; type: cell-based, mouse; conditions: 250 nM or 500 nM, 18 hours
Description: One hypothesis for this effect is that AIMs directly or indirectly increase transaminase gene expression in the absence of cellular toxicity.

C2C12 muscle cells = assay: glycolytic intermediates in C2C12 myotubes; type: cell-based, rodent
[3] = tested on: bleomycin-induced pulmonary fibrosis; assay: bleomycin-induced pulmonary fibrosis in mice; type: in vivo, mouse; conditions: 10, 30, or 100 mg/kg, 39 days
Procedure: Bleomycin was given on Day 0. Daily weights were measured. BAL fluid cell counts were obtained at sacrifice. […] No significant improvement in chronic inflammation score, interstitial fibrosis, or number of fibrotic foci was observed.
On the last day of dosing, lung tissue was collected and histology was performed to evaluate the extent of inflammation and interstitial fibrosis. […] Additional evaluation was performed using a rat model of pulmonary fibrosis that has been extensively characterized at the Lovelace Respiratory Research Institute. In this study, rats were challenged with bleomycin or saline by intratracheal administration on day 0. […] For the remaining animals, bronchoalveolar lavage fluid was collected on day 28 for assessment of pro-inflammatory infiltrates, and lung tissue was analyzed for hydroxyproline levels and histopathology. Challenge with bleomycin sulfate induced a substantial release of neutrophils and an increase in soluble collagen in the BALF, as well as an increase in hydroxyproline in the lung.

LPS-induced sepsis = conditions: mouse, in vivo
CD rats = assay: neurobehavioral evaluation in rats (FOB); type: in vivo, rat
Procedure: One additional group of 10 animals/sex served as the control and received vehicle (sesame oil).
Observations for morbidity, mortality, injury, and availability of food and water were conducted twice daily for all animals. Observations for clinical signs were conducted prior to dosing on Day 1 and following each functional observational battery (FOB) evaluation. FOB evaluations were conducted pre-dose (Day −1) and at approximately 4 and 24 hours post-dose. Body weights were measured and recorded pre-dose on Day 1.

[4] = oral pharmacokinetics in monkeys; type: in vivo, monkey; conditions: 3 mg/kg
Procedure: Following oral administration of a suspension formulation at doses of 10 to 100 mg/kg, maximal concentrations were observed within 1 to 2 hours in mice, and within 1 to 24 hours in rats and monkeys.

[5] = topical ocular administration pharmacokinetics in rabbits; type: in vivo, rabbit
Procedure: Using rabbits, the ocular absorption and systemic pharmacokinetic behavior of RTA 408 was evaluated.

[6] = tested on: acute radiation dermatitis; assay: acute radiation dermatitis model, BALB/c mice; type: in vivo, mouse
Procedure: Using male BALB/c mice, a 30 Gy dose of radiation was administered on day 0 (Table 3). […] The remaining mice were sacrificed on day 30 at 4 hours postdose. Plasma was collected on days 12 and 30 as well as irradiated skin samples for mRNA and histological examination. [table]

LPS-induced NO = assay: in vivo NO suppression after LPS, CD-1 mice; conditions: mouse
NQO1 = NQO1 activity in mouse tissues, 25 mg/kg PO QD×3; type: in vivo
Sprague Dawley rats = assay: 14-day rat toxicity study (tissue distribution, Nrf2 targets)
[7] = 10 mg/kg, four hours after final dose, Day 14

CC1(C)CC[C@]2(NC(=O)C(C)(F)F)CC[C@]3(C)[C@H](C(=O)C=C4[C@@]5(C)C=C(C#N)C(=O)C(C)(C)[C@@H]5CC[C@]43C)[C@@H]2C1 [RTA 408, N-((4aS,6aR,6bS,8aR,12aS,14aR,14bS)-11-cyano-2,2,6a,6b,9,9,12a-heptamethyl-10,14-dioxo-1,2,3,4,4a,5,6,6a,6b,7,8,8a,9,10,12a,14,14a,14b-octadecahydropicen-4a-yl)-2,2-difluoropropanamide]
IC50 ([1]; 2 h pre-treatment, 20 ng/mL IFNγ 24 h, read-out: IC50, suppression of IFNγ-induced NO production): 3.8 ± 1.2 nM | IC50 ([1]; Table 15, read-out: NO IC50 (nM), RAW264.7): 4 ± 1 nM | EC50 (glutathione levels): 9.9 nM | WST-1 absorbance (NADPH marker) (NADPH levels): increased WST-1 absorbance in a dose-dependent manner | IC50 [2]: 517 ± 83 nM | TNFα-induced phosphorylation of IκBα (phosphorylation of IκBα): inhibited TNFα-induced phosphorylation of IκBα in a dose-dependent manner | IL-6-induced phosphorylation of STAT3 (STAT3 phosphorylation): inhibited phosphorylation of STAT3 induced by IL-6 | alanine transaminase 1 (Alt1 or Gpt1) mRNA (transaminase mRNA levels): increased mRNA levels | alanine transaminase 2 (Alt2 or Gpt2) mRNA (transaminase mRNA levels): no effect | aspartate transaminase 1 (Ast1 or Got1) mRNA (transaminase mRNA levels): increased mRNA levels | aspartate transaminase 2 (Ast2 or Got2) mRNA (transaminase mRNA levels): reduced mRNA levels | intracellular pyruvate levels (C2C12 muscle cells; 250 nM or 500 nM, 18 hours, P<0.0001): increased intracellular pyruvate levels | intracellular and extracellular lactate levels (C2C12 muscle cells; 1 μM or 2 μM, 3 hours): significantly increased intracellular and extracellular lactate levels | inflammation and interstitial fibrosis (histology) [3]: no statistically significant effects | survival, systemic LPS (LPS-induced sepsis): improved survival | body weight gain approximately 24 hours after dosing (CD rats; 30 mg/kg): Slight decreases in body weight gain | basic neurobehavioral endpoints (CD rats; doses up to and including 30 mg/kg, single oral dose): did not produce any adverse effects | dose-normalized systemic exposure of loose-filled capsule vs suspension formulation [4]: somewhat lower | eye tissues with the highest concentrations ([5]; ocular topical administration): cornea, retina, or iris | plasma concentrations after oral vs topical ocular administration ([5]; once per day for 5 days): ~100 fold | percentage of mice with dermatitis clinical score above 3 ([6]; oral administration): significantly lower | Percentage of mice which scored above 2 in clinical dermatitis exam ([6]; topical 0.01%, Day 12): 0.0% | Percentage of mice which scored above 2 in clinical dermatitis exam ([6]; topical 0.01%, Day 14): 0.0% | Percentage of mice which scored above 2 in clinical dermatitis exam ([6]; topical 0.01%, Day 16): 20.0% | Percentage of mice which scored above 2 in clinical dermatitis exam ([6]; topical 0.01%, Day 18): 50.0% | Percentage of mice which scored above 2 in clinical dermatitis exam ([6]; topical 0.01%, Day 20): 10.0% | Percentage of mice which scored above 2 in clinical dermatitis exam ([6]; topical 0.01%, Day 22): 40.0% | Percentage of mice which scored above 2 in clinical dermatitis exam ([6]; topical 0.01%, Day 24): 40.0% | Percentage of mice which scored above 2 in clinical dermatitis exam ([6]; topical 0.01%, Day 26): 40.0% | Percentage of mice which scored above 2 in clinical dermatitis exam ([6]; topical 0.01%, Day 28): 20.0% | Percentage of mice which scored above 2 in clinical dermatitis exam ([6]; topical 0.01%, Day 30): 10.0% | Percentage of mice which scored above 2 in clinical dermatitis exam ([6]; topical 0.1%, Day 12): 7.1% | Percentage of mice which scored above 2 in clinical dermatitis exam ([6]; topical 0.1%, Day 14): 10.0% | Percentage of mice which scored above 2 in clinical dermatitis exam ([6]; topical 0.1%, Day 16): 20.0% | Percentage of mice which scored above 2 in clinical dermatitis exam ([6]; topical 0.1%, Day 18): 80.0% | Percentage of mice which scored above 2 in clinical dermatitis exam ([6]; topical 0.1%, Day 20): 60.0% | Percentage of mice which scored above 2 in clinical dermatitis exam ([6]; topical 0.1%, Day 22): 40.0% | Percentage of mice which scored above 2 in clinical dermatitis exam ([6]; topical 0.1%, Day 24): 30.0% | Percentage of mice which scored above 2 in clinical dermatitis exam ([6]; topical 0.1%, Day 26): 10.0% | Percentage of mice which scored above 2 in clinical dermatitis exam ([6]; topical 0.1%, Day 28): 0.0% | Percentage of mice which scored above 2 in clinical dermatitis exam ([6]; topical 0.1%, Day 30): 0.0% | Percentage of mice which scored above 2 in clinical dermatitis exam ([6]; topical 1.0%, Day 14): 20.0% | Percentage of mice which scored above 2 in clinical dermatitis exam ([6]; topical 1.0%, Day 16): 10.0% | Percentage of mice which scored above 2 in clinical dermatitis exam ([6]; topical 1.0%, Day 18): 70.0% | Percentage of mice which scored above 2 in clinical dermatitis exam ([6]; topical 1.0%, Day 20): 30.0% | Percentage of mice which scored above 2 in clinical dermatitis exam ([6]; topical 1.0%, Day 22): 10.0% | Percentage of mice which scored above 2 in clinical dermatitis exam ([6]; topical 1.0%, Day 24): 0.0% | Percentage of mice which scored above 2 in clinical dermatitis exam ([6]; topical 1.0%, Day 26): 0.0% | Percentage of mice which scored above 2 in clinical dermatitis exam ([6]; topical 1.0%, Day 28): 0.0% | Percentage of mice which scored above 2 in clinical dermatitis exam ([6]; topical 1.0%, Day 30): 0.0% | percentage of mice with dermatitis clinical score above 2 ([6]; topical administration): slightly lower | NO in vivo (LPS-induced NO): dose-dependently suppresses NO in vivo | activation of NQO1 in multiple tissues (NQO1): Meaningful activation of NQO1 | brain exposure over in vitro IC50 for NO inhibition (Sprague Dawley rats; [7]): 240 fold | lung exposure over in vitro IC50 for NO inhibition (Sprague Dawley rats; [7]): 294 fold | toxicity finding in the high dose group (Sprague Dawley rats; 100 mg/kg, tissues collected on Day 6): observed toxicities | liver NQO1 and GST enzyme activities (Sprague Dawley rats; PO QD×14): induced dose-dependently
